These results are taken from patent publication US8859620B2, “Phthalanilate compounds and methods of use” (University of Notre Dame du Lac, priority 2009, dated 2014).

In brackets after ≈: the same amount, converted by molar mass. Where only a bound is given, the exact number is not on record here.

Assay [1] deals with TEM-1 (class A β-lactamase) (Escherichia coli, UniProt P62593). The assay can be described thus: β-Lactamase assay (nitrocefin colour change), TEM-1. The format is biochemical. The conditions noted are these: for TEM-1: Table 10, class symbols x/xx/xxx, key not given. The method in brief: (§1)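 β-Lactamases (10 nM) preincubated with inhibitor 5 min at room temperature, pH 7.0 phosphate, then 100 μM nitrocefin; colour change read after 20 min. B1aR surface domain (1 μM) with inhibitor 20 min, then 20 μM BOCILLIN FL 5 min at 37 °C, SDS-PAGE fluorescence. PBP2 per Villegas-Esterada.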
TEM-1 (class A β-lactamase), sequence (P62593 24-286 limits assumed): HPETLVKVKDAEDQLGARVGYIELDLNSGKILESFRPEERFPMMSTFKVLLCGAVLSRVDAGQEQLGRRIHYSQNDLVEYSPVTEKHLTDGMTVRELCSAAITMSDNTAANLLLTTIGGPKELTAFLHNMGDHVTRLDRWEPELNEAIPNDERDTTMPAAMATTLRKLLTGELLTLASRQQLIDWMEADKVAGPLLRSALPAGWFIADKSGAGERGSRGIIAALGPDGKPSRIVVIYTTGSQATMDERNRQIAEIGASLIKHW

Assay [2] has as its system Escherichia coli ATCC 29194. The assay can be described thus: MIC, Table 12. The class given is cell-based. The note with it: ATCC29194, Muller-Hinton II Broth.
The target of assay [3] is OXA-10 (class D β-lactamase) (Pseudomonas aeruginosa, UniProt P14489). The assay can be described thus: β-Lactamase assay (nitrocefin colour change), OXA-10. The note with it: for OXA-10: Table 10, class symbols x/xx/xxx, key not given; for IC50: nitrocefin 100 μM, 10 nM enzyme, 5 min pre-incubation, read-out: IC50s OXA-10. The format is biochemical. The method in brief: as §1
OXA-10 (class D β-lactamase), sequence (P14489 20-266, species assumed): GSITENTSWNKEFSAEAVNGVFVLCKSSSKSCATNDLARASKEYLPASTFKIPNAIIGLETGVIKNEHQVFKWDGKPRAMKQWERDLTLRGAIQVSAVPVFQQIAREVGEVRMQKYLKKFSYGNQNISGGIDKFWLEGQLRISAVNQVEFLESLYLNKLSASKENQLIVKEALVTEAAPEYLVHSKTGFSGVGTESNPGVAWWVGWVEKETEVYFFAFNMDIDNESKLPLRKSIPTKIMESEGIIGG

In assay [4] the target is P99 (class C β-lactamase) (Enterobacter cloacae, UniProt P05364). The assay can be described thus: β-Lactamase assay (nitrocefin colour change), P99. The format is biochemical. The conditions noted are these: for P99: Table 10, class symbols x/xx/xxx, key not given; for IC50: nitrocefin 100 μM, 10 nM enzyme, 5 min pre-incubation, read-out: IC50s P99. The method in brief:
as §1

Assay [5] has as its system Proteus mirabilis ATCC 35659. The assay can be described thus: MIC, Table 12. The conditions noted are these: ATCC35659, Muller-Hinton II Broth. The class given is cell-based. Here is the method: (§2) Table 12 illustrates the results and the minimal inhibitory concentration (MIC) for S. aureus, Enterococcus faecalis, Pseudomonas aeruginosa, Klebsiella pneumonia, and Proteus mirabilis. The inoculum is about 1.5×10^5 CFU/mL. The minimal inhibitory concentrations (MIC) were done in Muller-Hinton II Broth with the exception of Enterococcus faecalis ATCC 29212, which was done in Brain Heart Infusion Broth. The concentration of DMSO at 200 μg/mL was 10%.

The subject of assay [6] is Pseudomonas aeruginosa ATCC 27853. The assay can be described thus: MIC, Table 12. The class given is cell-based. The note with it: ATCC27853, Muller-Hinton II Broth. On the procedure:
as §2

Assay [7] has as its system Staphylococcus aureus NRS100 (COL). The assay can be described thus: MIC, Table 12. The format is cell-based. The note with it: Staphylococcus aureus NRS100 (COL); Muller-Hinton II Broth; read-out: MIC. Here is the method:
as §2

For assay [8], the system named is Klebsiella pneumonia ATCC 33495. The assay can be described thus: MIC, Table 12. The format is cell-based. The note with it: Klebsiella pneumoniae, ATCC33495, Muller-Hinton II Broth. On the procedure:
as §2

Assay [9] relates to Staphylococcus aureus ATCC 29213. The assay can be described thus: MIC, Table 12. The format is cell-based. The conditions noted are these: ATCC29213; Staphylococcus aureus ATCC 29213; Muller-Hinton II Broth; read-out: MIC. On the procedure: as §2
Assay [10] relates to Enterococcus faecalis ATCC 29212. The assay can be described thus: MIC, Table 12. The class given is cell-based. The note with it: ATCC29212; Enterococcus faecalis ATCC 29212; Brain Heart Infusion Broth; inoculum about 1.5×10^5 CFU/mL; read-out: MIC. On the procedure: as §2
Assay [11] concerns Staphylococcus aureus (COLVA). The assay can be described thus: MIC, Table 12. The format is cell-based. The note with it: Staphylococcus aureus. On the procedure:
as §2

Assay [12] concerns Staphylococcus aureus NRS1 (Mec^r. Vani). The assay can be described thus: MIC, Table 12. The note with it: Staphylococcus aureus NRS1 (Mec^r. Vani); Muller-Hinton II Broth; read-out: MIC. The format is cell-based. Here is the method: as §2
Another assay relates to S. aureus NRS100 (Mec^R). The assay can be described thus: MIC against S. aureus NRS100 (Table 14). The format is cell-based, Staphylococcus aureus. The conditions noted are these: Staphylococcus aureus, compounds dissolved in DMSO or 1% sodium carbonate, read-out: MIC. On the procedure: The recited compounds were dissolved in DMSO or in 1% sodium carbonate and transferred into micro titer plate to final concentration of 1000 μg/mL.

The next assay concerns the target surface domain of B1aR (Staphylococcus aureus, UniProt P18357). The assay can be described thus: B1aR assay (BOCILLIN FL labeling, SDS-PAGE). The conditions noted are these: Table 10; class symbols x/xx/xxx, key not given. The format is binding, Staphylococcus aureus (MRSA). Here is the method: β-Lactamase Assays (TEM-1, P99, and OXA-10): The activity of the compounds of the invention (inhibitors) toward β-lactamases was evaluated using 96 well plates. The reaction mixture included 10 mM sodium phosphate, pH 7.0, 150 mM sodium chloride, 0.01% Triton X-100, 100 μM nitrocefin, 10 nM of β-lactamases (class A: TEM-1; class C: P99, or class D: OXA-10), and variable concentrations of the inhibitors in a total volume of 100 μL. β-Lactamases were pre-incubated with the compounds at room temperature for 5 minutes, and the assay was initiated by the addition of nitrocefin. The inhibition of the enzyme activity by the compounds was determined by monitoring color change (from yellow to red) of nitrocefin after 20 minutes. Stock solutions of the compounds were prepared in dimethyl sulfoxide (DMSO). No more than 5% DMSO was present in assays, unless noted otherwise. B1aR Assay: The surface domain of B1aR (1 μM) was added to each inhibitor (at various concentrations) in 100 mM sodium phosphate, 50 mM sodium bicarbonate, at pH 7.0. The reaction mixtures were incubated at room temperature for 20 minutes. BOCILLIN FL, a fluorogenic ligand, was added to a concentration of 20 μM in a final volume of 20 μL. The mixtures were incubated at 37° C. for 5 minutes, at which point the reactions were quenched by the addition of 15 μL of the SDS sample buffer (125 mM Tris, 4% SDS, 20% glycerol, 2% 2-mercaptoethanol, pH 6.8), and were boiled for 4 minutes. The samples were loaded onto 15% SDS-PAGE, the gel was developed and scanned using a Storm 840® Fluorimager. The fluorescent bands of BOCILLIN FL-labeled B1aR^S were analyzed by Image Quant 5.2 software. PBP2 Assay: The PBP2 assay was performed according to the methods of Villegas-Esterada et al. (J. Am. Chem. Soc. 2008, 130, 9212-9213).

P99 (class C β-lactamase), sequence (P05364 21-381): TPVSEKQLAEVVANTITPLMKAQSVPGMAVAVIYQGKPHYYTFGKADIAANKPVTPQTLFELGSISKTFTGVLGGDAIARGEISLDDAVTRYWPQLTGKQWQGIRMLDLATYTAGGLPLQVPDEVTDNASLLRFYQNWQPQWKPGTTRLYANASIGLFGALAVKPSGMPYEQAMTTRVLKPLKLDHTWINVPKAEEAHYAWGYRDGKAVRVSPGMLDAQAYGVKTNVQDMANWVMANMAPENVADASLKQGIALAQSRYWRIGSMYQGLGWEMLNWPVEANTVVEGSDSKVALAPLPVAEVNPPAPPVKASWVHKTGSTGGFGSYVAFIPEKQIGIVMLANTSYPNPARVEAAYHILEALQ
surface domain of B1aR, sequence (P18357 331-585): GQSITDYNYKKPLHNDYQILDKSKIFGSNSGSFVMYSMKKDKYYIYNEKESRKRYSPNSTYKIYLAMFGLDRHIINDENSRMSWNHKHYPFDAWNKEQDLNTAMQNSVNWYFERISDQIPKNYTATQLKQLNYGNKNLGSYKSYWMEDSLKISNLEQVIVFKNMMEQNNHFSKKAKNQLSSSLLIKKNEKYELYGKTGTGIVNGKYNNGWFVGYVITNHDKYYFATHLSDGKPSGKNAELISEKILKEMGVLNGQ

As to `CCCCCCCCOc1ccc(NC(=O)c2c(Br)c(Br)c(Br)c(Br)c2C(=O)O)cc1` [Compound 274], the IC50 was found to be 2.4 ± 0.1 µM in assay [1], 5.5 ± 0.5 µM in assay [3] and 3.1 ± 0.5 µM in [4]. Moreover, the TEM-1 result in [1] is “xxx”. Besides, the MIC – broadly, the least concentration at which growth counts as inhibited – in assay [2] stood at 400 µg/mL (≈ 584 µM); in assay [5], 400 µg/mL (≈ 584 µM); in [6], 200 µg/mL (≈ 292 µM); in assay [7], 3 µg/mL (≈ 4.38 µM); in assay [8], 200 µg/mL (≈ 292 µM); in assay [9], 3 µg/mL (≈ 4.38 µM). In addition, the MIC in assay [10] turned out to be 100 µg/mL (≈ 146 µM); in [11], 3 µg/mL (≈ 4.38 µM); in assay [12] it was 3 µg/mL (≈ 4.38 µM). Besides, in [3], the OXA-10 result is reported as “xxx”. Moreover, in assay [4], the P99 result is on record as “xxx”.
As to `CCCCCCCCOc1ccc(NC(=O)c2c(Cl)c(Cl)c(Cl)c(Cl)c2C(=O)O)cc1` [Compound 265], the IC50 in assay [1] is 3.6 ± 0.5 µM; in assay [3], 9.9 ± 0.8 µM; in [4], 10.3 ± 0.3 µM. Also, the TEM-1 result in assay [1] is “xxx”. Also, the MIC in [2] worked out at 200 µg/mL (≈ 394 µM); in assay [5], 200 µg/mL (≈ 394 µM); in [6], 200 µg/mL (≈ 394 µM); in assay [7] it was 6 µg/mL (≈ 11.8 µM); in assay [8] it was 200 µg/mL (≈ 394 µM); in assay [9], 6 µg/mL (≈ 11.8 µM). The MIC in assay [10], in assay [11] and in [12] was 6 µg/mL (≈ 11.8 µM) each time. For the same compound, the OXA-10 result in assay [3] is given as “xxx”. In addition, in assay [4], the P99 entry is “xxx”.
Regarding `O=C(O)c1c(Cl)c(Cl)c(Cl)c(Cl)c1C(=O)Nc1ccc(OCc2ccccc2)c(Cl)c1` [Compound 253], the figures for the IC50 in [1], in assay [3] and in assay [4] were 32.3 ± 5.9 µM, 222 ± 17 µM and 105 ± 8.7 µM, respectively. Further, in assay [1], the TEM-1 result was “xxx”. For the same compound, the MIC in assay [2] was 400 µg/mL (≈ 770 µM); with S. aureus NRS100 (Mec^R), > 16 µg/mL; in assay [5], 400 µg/mL (≈ 770 µM); in assay [6] it was 200 µg/mL (≈ 385 µM); in [7], 50 µg/mL (≈ 96.2 µM); in assay [8], 200 µg/mL (≈ 385 µM). Also, the minimal inhibitory concentration (MIC) was found to be 50 µg/mL (≈ 96.2 µM) in assay [9], 200 µg/mL (≈ 385 µM) in [10], 50 µg/mL (≈ 96.2 µM) in [11] and 50 µg/mL (≈ 96.2 µM) in assay [12]. Besides, in assay [3], the OXA-10 entry is given as “xxx”. Also, the P99 entry in [4] is reported as “xxx”. For the same compound, the BlaR result on surface domain of B1aR was “xx”.
